Laboratory results: the supplement of paper PMC10307832

Assays:
Test in all cases: relative viability (nuclei count vs DMSO), 5 days (fraction); higher = more cells survive
Bemcentinib + Navitoclax = compound: Nc1nc(Nc2ccc3c(c2)CC[C@@H](N2CCCC2)CC3)nn1-c1cc2c(nn1)-c1ccccc1CCC2 [Bemcentinib] + CC1(C)CCC(c2ccc(Cl)cc2)=C(CN2CCN(c3ccc(C(=O)NS(=O)(=O)c4ccc(N[C@H](CCN5CCOCC5)CSc5ccccc5)c(S(=O)(=O)C(F)(F)F)c4)cc3)CC2)C1 [Navitoclax] (partner 0.5 µM)
Outline: (§1)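 Medians of duplicate plates are given as relative viability. That measure is the nuclei count in treated wells divided by the count in vehicle wells. Counts were taken on 4× images of lung cancer cell lines in 1536-well plates, 5 days after pin-tool dosing the day after seeding with one drug alone or a fixed anchor-drug dose plus five library-drug doses (not always all listed) in √10 steps.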

[1] = compound: CC1=CC=C(C=C1)C(=O)CN2C3=C(CCCC3)SC2=N [Pifithrin_alpha] + CC(=O)Nc1cccc(-n2c(=O)n(C3CC3)c(=O)c3c(Nc4ccc(I)cc4F)n(C)c(=O)c(C)c32)c1 [Trametinib] (partner 0.02 µM)
Outline: as §1

Bemcentinib + Olaparib = compound: Nc1nc(Nc2ccc3c(c2)CC[C@@H](N2CCCC2)CC3)nn1-c1cc2c(nn1)-c1ccccc1CCC2 [Bemcentinib] + O=C(c1cc(Cc2n[nH]c(=O)c3ccccc23)ccc1F)N1CCN(C(=O)C2CC2)CC1 [Olaparib] (partner 8 µM)
Outline: as §1

Bemcentinib + Phenformin = compound: Nc1nc(Nc2ccc3c(c2)CC[C@@H](N2CCCC2)CC3)nn1-c1cc2c(nn1)-c1ccccc1CCC2 [Bemcentinib] + N=C(N)NC(=N)NCCc1ccccc1 [Phenformin] (partner 250 µM)
Outline: as §1

Row | Cell Line | relative viability (Bemcentinib + Navitoclax; first compound 0.04 µM) | relative viability (Bemcentinib + Navitoclax; first compound 0.1265 µM) | relative viability (Bemcentinib + Navitoclax; first compound 0.4 µM) | relative viability (Bemcentinib + Navitoclax; first compound 1.265 µM) | relative viability (Bemcentinib + Navitoclax; first compound 4 µM) | relative viability ([1]; first compound 1 µM) | relative viability ([1]; first compound 3.162 µM) | relative viability ([1]; first compound 10 µM) | relative viability ([1]; first compound 31.62 µM) | relative viability ([1]; first compound 100 µM) | relative viability (Bemcentinib + Olaparib; first compound 0.04 µM) | relative viability (Bemcentinib + Olaparib; first compound 0.1265 µM) | relative viability (Bemcentinib + Olaparib; first compound 0.4 µM) | relative viability (Bemcentinib + Olaparib; first compound 1.265 µM) | relative viability (Bemcentinib + Olaparib; first compound 4 µM) | relative viability (Bemcentinib + Phenformin; first compound 0.04 µM) | relative viability (Bemcentinib + Phenformin; first compound 0.1265 µM) | relative viability (Bemcentinib + Phenformin; first compound 0.4 µM) | relative viability (Bemcentinib + Phenformin; first compound 1.265 µM) | relative viability (Bemcentinib + Phenformin; first compound 4 µM)
1 | 201T | 1.17 | 1.24 | 1.21 | 1.24 | 1.3 | 0.752 | 0.616 | 0.61 | 0.529 | 0.518 | 0.872 | 0.874 | 0.934 | 0.897 | 0.818 | 0.417 | 0.504 | 0.48 | 0.454 | 0.455
2 | A549 | 1.2 | 1.27 | 1.32 | 1.29 | 1.2 |  |  |  |  |  | 0.264 | 0.279 | 0.323 | 0.167 | 0.342 | 0.126 | 0.124 | 0.17 | 0.121 | 0.147
3 | A-427 |  | 0.946 | 0.826 | 0.909 | 1.07 | 0.682 | 0.727 | 0.688 | 0.6 | 0.552 | 0.737 | 0.783 | 0.853 | 0.72 | 0.71 | 0.305 | 0.308 | 0.332 | 0.337 | 0.258
4 | ABC-1 |  |  |  |  |  |  |  |  |  |  | 0.627 | 0.843 | 0.855 | 0.774 | 0.792 | 0.191 | 0.267 | 0.23 | 0.253 | 0.239
5 | BEN | 0.0583 | 0.0756 | 0.0599 | 0.055 | 0.0552 | 1.13 | 0.993 | 1.12 | 1.14 | 1.29 | 1.05 | 1.25 | 1.02 | 1.19 | 1.18 | 0.242 | 0.289 | 0.269 | 0.255 | 0.295
6 | CAL-12T | 1.12 | 1.28 | 1.25 | 1.19 | 1.32 | 0.295 | 0.331 | 0.274 |  | 0.268 | 0.705 | 0.751 | 0.716 | 0.77 | 0.698 | 0.492 | 0.632 | 0.611 | 0.579 | 0.601
7 | COR-L23 | 1.14 | 1.11 | 1.1 | 1.03 | 1.03 | 0.517 | 0.709 | 0.638 |  | 0.539 | 0.38 | 0.314 | 0.371 | 0.328 | 0.344 | 0.425 | 0.44 | 0.449 | 0.465 | 0.493
8 | COR-L 105 | 0.602 | 0.733 | 0.794 | 0.86 | 0.729 | 0.259 | 0.424 | 0.432 | 0.421 | 0.454 | 0.635 | 0.762 | 0.752 | 0.737 | 0.64 | 0.529 | 0.432 | 0.561 | 0.494 | 0.45
9 | Calu-6 | 0.856 | 0.856 | 1.01 | 0.871 | 0.973 |  |  |  |  |  | 0.525 | 0.573 | 0.614 | 0.535 | 0.57 |  |  |  |  | 
10 | ChaGo-K-1 | 0.872 | 0.933 | 1.02 | 0.862 | 0.624 | 0.889 | 0.936 | 0.889 | 0.589 | 0.862 | 0.403 | 0.371 | 0.467 | 0.438 | 0.423 | 0.486 | 0.544 | 0.517 | 0.473 | 0.442
11 | EBC-1 | 0.377 | 0.404 | 0.431 | 0.394 | 0.422 |  |  |  |  |  | 0.773 | 0.73 | 0.693 | 0.691 | 0.754 |  |  |  |  | 
12 | EKVX | 0.859 | 1.01 | 1.03 | 0.804 | 1.1 | 0.394 | 0.532 | 0.269 | 0.28 | 0.21 | 0.88 | 0.852 | 0.829 | 1.09 | 0.939 | 0.256 | 0.215 | 0.239 | 0.277 | 0.237
13 | EMC-BAC-2 | 1.15 | 1.35 | 1.27 | 1.2 | 1.23 |  | 0.89 |  | 0.706 | 0.794 | 0.491 | 0.511 | 0.488 | 0.468 | 0.482 | 0.515 | 0.516 | 0.556 | 0.507 | 0.514
14 | EPLC-272H |  | 1.04 | 1.19 | 1.33 | 1.43 |  | 0.282 | 0.281 | 0.284 | 0.268 | 0.753 | 1.02 | 0.975 | 0.833 | 0.761 | 0.372 | 0.273 | 0.27 | 0.296 | 0.352
15 | H3255 | 0.397 | 0.581 | 0.67 | 0.325 | 0.506 | 0.578 | 0.831 | 0.546 | 0.421 | 0.442 | 0.533 | 0.589 | 0.537 | 0.599 | 0.491 | 0.383 | 0.318 | 0.354 | 0.418 | 0.361
16 | HARA | 1.18 | 1.18 | 1.2 | 1.13 | 1.16 | 0.557 | 0.695 | 0.836 | 0.493 | 0.45 | 0.778 | 1.17 | 1.14 | 0.929 | 0.76 | 0.41 | 0.541 | 0.539 | 0.434 | 0.498
17 | HCC-15 | 0.713 | 0.799 | 0.776 | 0.726 | 0.721 | 0.373 | 0.33 | 0.348 | 0.315 | 0.256 | 0.7 | 0.712 | 0.771 | 0.655 | 0.748 | 0.486 | 0.532 | 0.516 | 0.465 | 0.499
18 | HCC-44 | 1.09 | 1.13 | 1.01 | 1.12 | 1.02 | 0.945 | 0.846 | 0.727 | 0.786 | 0.747 | 1.04 | 1.04 | 0.981 | 0.974 | 1.02 | 0.155 | 0.28 | 0.175 | 0.187 | 0.149
